# According to patent publication US20060264460A1 (Wyeth, priority 2005, published 2006):
# Molecular target: T1, human Cot/Tpl2 kinase (Homo sapiens, UniProt P41279)
# T1 construct: human Cot/Tpl2 kinase construct encoding residues 30-398; 6His (N); made in house; host or cells: Sf9 insect cells, baculovirus system (BD Biosciences)
# Test: Tpl2/Cot kinase assay: GST-MEK1 phosphorylation detected by ELISA (DELFIA Eu)
# Type: biochemical
# Settings: Table 2; Tpl2/Cot kinase, GST-MEK1 substrate, 50 uM ATP
# Method in brief: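 His-tagged human Tpl2 from Sf9 cells, Ni-affinity and size-exclusion purified (monomer). 0.4 nM Tpl2 with 35 nM GST-MEK1, 50 uM ATP, MOPS pH 7.2, 1% DMSO, 1 h at 30° C; EDTA stop. MEK1 Ser217/221 phosphorylation detected by anti-phospho-MEK1 and Eu-labelled secondary ELISA; IC50 fitted.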
# T1 sequence (P41279 30-398): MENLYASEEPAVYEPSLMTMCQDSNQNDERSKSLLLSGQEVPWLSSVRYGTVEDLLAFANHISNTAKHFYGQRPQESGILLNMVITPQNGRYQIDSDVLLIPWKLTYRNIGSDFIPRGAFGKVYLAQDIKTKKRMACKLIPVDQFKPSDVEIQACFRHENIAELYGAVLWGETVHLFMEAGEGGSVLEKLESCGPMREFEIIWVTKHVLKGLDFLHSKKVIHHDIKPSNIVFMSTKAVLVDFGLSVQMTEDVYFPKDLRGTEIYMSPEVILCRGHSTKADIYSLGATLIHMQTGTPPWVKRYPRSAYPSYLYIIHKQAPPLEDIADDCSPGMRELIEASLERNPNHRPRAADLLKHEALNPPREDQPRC
row,Compound,IC50 [nM]
1,CN1CCC(n2cc(CN(C)c3cc(Br)c4ncc(C#N)c(Nc5ccc(F)c(Cl)c5)c4c3)nn2)CC1 [Example 506],22
2,COCCCc1nc[nH]c1CNc1cc(Br)c2ncc(C#N)c(Nc3ccc(F)c(Cl)c3)c2c1 [Example 507],62.1
3,CSCCn1cc(CNc2cc(Br)c3ncc(C#N)c(Nc4ccc(F)c(Cl)c4)c3c2)nn1 [Example 508],82
4,CC(C)(C)OC(=O)N1CCC(CCn2cc(CN(Cc3cn(CCC4CCN(C(=O)OC(C)(C)C)CC4)nn3)c3cc(Br)c4ncc(C#N)c(Nc5ccc(F)c(Cl)c5)c4c3)nn2)CC1 [Example 509],> 3000
5,N#Cc1cnc2c(Br)cc(NCc3cn(CCO)nn3)cc2c1Nc1ccc(F)c(Cl)c1 [Example 510],28
6,CS(=O)(=O)CCn1cc(CNc2cc(Br)c3ncc(C#N)c(Nc4ccc(F)c(Cl)c4)c3c2)nn1 [Example 511],91
7,CNCCn1cc(CNc2cc(Br)c3ncc(C#N)c(Nc4ccc(F)c(Cl)c4)c3c2)nn1 [Example 512],38
8,CNCCn1cc(CNc2cc(Cl)c3ncc(C#N)c(Nc4ccc(F)c(Cl)c4)c3c2)nn1 [Example 513],29
9,CN(C)CCCn1cc(CNc2cc(Cl)c3ncc(C#N)c(Nc4ccc(F)c(Cl)c4)c3c2)nn1 [Example 514],39
10,N#Cc1cnc2c(Cl)cc(NCc3cn(CCN4CCCC4)nn3)cc2c1Nc1ccc(F)c(Cl)c1 [Example 515],40
11,N#Cc1cnc2c(Br)cc(NCc3cn(CCC4CCNCC4)nn3)cc2c1Nc1ccc(F)c(Cl)c1 [Example 517],90
12,CN1CCC(CCn2cc(CNc3cc(Br)c4ncc(C#N)c(Nc5ccc(F)c(Cl)c5)c4c3)nn2)CC1 [Example 520],44
13,CN1CCC(CCn2cc(CNc3cc(Cl)c4ncc(C#N)c(Nc5ccc(F)c(Cl)c5)c4c3)nn2)CC1 [Example 521],38
14,COCCn1cc(CNc2cc(Br)c3ncc(C#N)c(Nc4ccc(F)c(Cl)c4)c3c2)nn1 [Example 522],18
15,N#Cc1cnc2c(Br)cc(NCc3cn(CCCO)nn3)cc2c1Nc1ccc(F)c(Cl)c1 [Example 523],18
16,N#Cc1cnc2c(Br)cc(NCc3cn(CCS(=O)(=O)C4CCCC4)nn3)cc2c1Nc1ccc(F)c(Cl)c1 [Example 524],53
17,CS(=O)(=O)N1CCC(n2cc(CNc3cc(Br)c4ncc(C#N)c(Nc5ccc(F)c(Cl)c5)c4c3)nn2)CC1 [Example 525],1.1
18,N#Cc1cnc2c(Br)cc(NCc3cnc4ccccn34)cc2c1Nc1ccc(F)c(Cl)c1 [Example 526],280

# Other lines, results leading:
row,IC50 [nM],Compound
1,> 3000,Fc1ccc(Nc2ncncc2-c2ccc(NCc3cnc[nH]3)cc2)cc1Cl [Example 527]
2,110,N#Cc1cnc2c(Br)cc(NCc3cnc4cnccn34)cc2c1Nc1ccc(F)c(Cl)c1 [Example 528]
3,43,CS(=O)(=O)CCn1cnc(CNc2cc(Br)c3ncc(C#N)c(Nc4ccc(F)c(Cl)c4)c3c2)c1 [Example 529]
4,12,CSCn1cc(CNc2cc(Br)c3ncc(C#N)c(Nc4ccc(F)c(Cl)c4)c3c2)nn1 [Example 530]
5,33,CS(=O)(=O)Cn1cc(CNc2cc(Br)c3ncc(C#N)c(Nc4ccc(F)c(Cl)c4)c3c2)nn1 [Example 531]
6,120,C[S+]([O-])Cn1cc(CNc2cc(Br)c3ncc(C#N)c(Nc4ccc(F)c(Cl)c4)c3c2)nn1 (stereo not drawn) [Example 532]
7,3.1,N#Cc1cnc2c(Br)cc(NCc3cn(Cc4cccnc4)cn3)cc2c1Nc1ccc(F)c(Cl)c1 [Example 533]
8,> 3000,N#Cc1cncc(-c2ccccc2NCc2cnc[nH]2)c1Nc1ccc(F)c(Cl)c1 [Example 534]
9,> 3000,Fc1ccc(Nc2ncncc2-c2cccc(NCc3cnc[nH]3)c2)cc1Cl [Example 535]
10,> 3000,Fc1ccc(Nc2ncncc2-c2ccccc2NCc2cnc[nH]2)cc1Cl [Example 536]
11,800,N#Cc1cnc2c(Br)cc(NCc3cc(C4CCNCC4)n[nH]3)cc2c1Nc1ccc(F)c(Cl)c1 [Example 537]
12,3.4,N#Cc1cnc2c(Br)cc(NCc3cn(CCCN4CCCCC4)nn3)cc2c1Nc1ccc(F)c(Cl)c1 [Example 538]
